Source: PubChem BioAssay (NCI)
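These data come from cells grown in 96-well plates and exposed to compound for 48 hours at five concentrations. TGI: concentration producing complete growth inhibition.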

Legend:
Assay in all cases: NCI tumour cell line growth inhibition, 48 h
[1] = system: 786-0 renal
[2] = system: A498 renal
[3] = system: A549 NSCLC
[4] = system: ACHN renal
[5] = system: CAKI-1 renal
[6] = system: CCRF-CEM leukemia
[7] = system: COLO 205 colon
[8] = system: DLD-1 colon
[9] = system: DMS 114 small cell lung
[10] = system: DMS 273 small cell lung
[11] = system: EKVX NSCLC
[12] = system: HCC-2998 colon
[13] = system: HCT-15 colon
[14] = system: HL-60(TB) leukemia
[15] = system: HOP-18 NSCLC
[16] = system: HOP-62 NSCLC
[17] = system: HOP-92 NSCLC
[18] = system: HT29 colon
[19] = system: K-562 leukemia
[20] = system: KM12 colon
[21] = system: KM20L2 colon
[22] = system: LOX IMVI melanoma
[23] = system: LXFL 529 NSCLC
[24] = system: M14 melanoma
[25] = system: MALME-3M melanoma
[26] = system: MOLT-4 leukemia
[27] = system: NCI-H226 lung
[28] = system: NCI-H23 lung
[29] = system: NCI-H460 lung
[30] = system: NCI-H522 lung
[31] = system: OVCAR-3 ovarian
[32] = system: OVCAR-4 ovarian
[33] = system: OVCAR-5 ovarian
[34] = system: RPMI-8226 leukemia
[35] = system: SF-268 CNS
[36] = system: SF-295 CNS
[37] = system: SF-539 CNS
[38] = system: SK-MEL-2 melanoma
[39] = system: SK-MEL-28 melanoma
[40] = system: SK-MEL-5 melanoma
[41] = system: SK-OV-3 ovarian
[42] = system: SNB-19 CNS
[43] = system: SNB-78 CNS
[44] = system: SW-620 colon
[45] = system: TK-10 renal
[46] = system: U251 CNS
[47] = system: UACC-257 melanoma
[48] = system: UO-31 renal
[49] = system: XF 498 CNS
[50] = system: HCT-116 colon
[51] = system: IGROV1 ovarian
[52] = system: OVCAR-8 ovarian
[53] = system: RXF 393 renal
[54] = system: RXF-631 renal
[55] = system: SN12C renal
[56] = system: SNB-75 CNS
[57] = system: UACC-62 melanoma

O=c1ncccn1C1C=C(CO)C(O)C1O (stereo not drawn) was tested, and the TGI [1] was greater than 50 µM, the TGI [2] was greater than 50 µM and the TGI [3] was greater than 50 µM. For the same compound, the TGI [4] was greater than 50 µM, the TGI [5] was greater than 50 µM and the TGI [6] was greater than 50 µM. The TGI [7] was greater than 50 µM, the TGI [8] was greater than 50 µM and the TGI [9] was greater than 50 µM. The TGI [10] was greater than 50 µM, the TGI [11] was greater than 50 µM and the TGI [12] was greater than 50 µM. For the same compound, the TGI [13] was greater than 50 µM, the TGI [14] was greater than 50 µM and the TGI [15] was greater than 50 µM. For the same compound, the TGI [16] was greater than 50 µM, the TGI [17] was greater than 50 µM and the TGI [18] was greater than 50 µM. For the same compound, the TGI [19] was greater than 50 µM, the TGI [20] was greater than 50 µM and the TGI [21] was greater than 50 µM. The TGI [22] was greater than 50 µM, the TGI [23] was greater than 50 µM and the TGI [24] was greater than 50 µM. It also gave a TGI [25] greater than 50 µM, a TGI [26] greater than 50 µM and a TGI [27] greater than 50 µM. It also gave a TGI [28] greater than 50 µM, a TGI [29] greater than 50 µM and a TGI [30] greater than 50 µM. It also gave a TGI [31] greater than 50 µM, a TGI [32] greater than 50 µM and a TGI [33] greater than 50 µM. The TGI [34] was greater than 50 µM, the TGI [35] was greater than 50 µM and the TGI [36] was greater than 50 µM. For the same compound, the TGI [37] was greater than 50 µM, the TGI [38] was greater than 50 µM and the TGI [39] was greater than 50 µM. The TGI [40] was greater than 50 µM, the TGI [41] was greater than 50 µM and the TGI [42] was greater than 50 µM. It also gave a TGI [43] greater than 50 µM, a TGI [44] greater than 50 µM and a TGI [45] greater than 50 µM. It also gave a TGI [46] greater than 50 µM, a TGI [47] greater than 50 µM and a TGI [48] greater than 50 µM. For the same compound, the TGI [49] was greater than 50 µM.
In the case of CCCCCCCCCCCCCC(=O)OCC1OC(=O)CC1O (stereo not drawn), the TGI [1] is reported as greater than 100 µM, the TGI [2] is reported as greater than 100 µM and the TGI [3] is reported as greater than 100 µM. The TGI [4] was greater than 100 µM, the TGI [5] was greater than 100 µM and the TGI [6] was greater than 100 µM. The TGI [7] was greater than 100 µM, the TGI [8] was greater than 100 µM and the TGI [9] was greater than 100 µM. The TGI [10] was greater than 100 µM, the TGI [11] was greater than 100 µM and the TGI [12] was greater than 100 µM. The TGI [50] was greater than 100 µM, the TGI [13] was 74.5 µM and the TGI [14] was greater than 100 µM. It also gave a TGI [15] of 67.3 µM, a TGI [16] greater than 100 µM and a TGI [17] of 40.2 µM. It also gave a TGI [18] greater than 100 µM, a TGI [51] greater than 100 µM and a TGI [19] of 61.5 µM. The TGI [20] was greater than 100 µM, the TGI [21] was greater than 100 µM and the TGI [22] was greater than 100 µM. For the same compound, the TGI [23] was greater than 100 µM, the TGI [24] was 47.9 µM and the TGI [25] was greater than 100 µM. For the same compound, the TGI [26] was greater than 100 µM, the TGI [28] was greater than 100 µM and the TGI [29] was greater than 100 µM. For the same compound, the TGI [31] was greater than 100 µM, the TGI [32] was greater than 100 µM and the TGI [33] was greater than 100 µM. For the same compound, the TGI [52] was greater than 100 µM, the TGI [34] was greater than 100 µM and the TGI [53] was greater than 100 µM. The TGI [54] was greater than 100 µM, the TGI [35] was greater than 100 µM and the TGI [36] was greater than 100 µM. It also gave a TGI [37] greater than 100 µM, a TGI [38] greater than 100 µM and a TGI [40] greater than 100 µM. For the same compound, the TGI [41] was greater than 100 µM, the TGI [55] was greater than 100 µM and the TGI [42] was greater than 100 µM. It also gave a TGI [56] greater than 100 µM, a TGI [43] greater than 100 µM and a TGI [44] greater than 100 µM. It also gave a TGI [45] greater than 100 µM, a TGI [46] greater than 100 µM and a TGI [47] greater than 100 µM. The TGI [57] was greater than 100 µM, the TGI [48] was 81.6 µM and the TGI [49] was greater than 100 µM.
